This note sets out measurements from ChEMBL document CHEMBL3421625, “Discovery and optimization of novel antagonists to the human neurokinin-3 receptor for the treatment of sex-hormone disorders (Part I)” (J Med Chem, 2015).

Data set [1] is described as follows: Lipophilicity, log D of the compound at pH 7.4. Format: physicochemical. To be noted: buffer, read-out: logD.
Data set [2] is described as follows: Solubility of the compound in PBS buffer at pH 7.4 by shake-flask method. The data set is classed as physicochemical.
In another data set the target is Cytochrome P450 3A4 (Homo sapiens, UniProt P08684). The experiment in a line: Inhibition of CYP3A4 (unknown origin) by luciferase reporter assay in presence of NADPH regeneration system. The data set is classed as ADME.
Another data set addresses Cytochrome P450 2D6 (Homo sapiens, UniProt P10635). The experiment in a line: Inhibition of CYP2D6 (unknown origin) by luciferase reporter assay in presence of NADPH regeneration system. The data set is classed as ADME.
The next data set addresses Cytochrome P450 2C9 (Homo sapiens, UniProt P11712). Description: Inhibition of CYP2C9 (unknown origin) by luciferase reporter assay in presence of NADPH regeneration system. Format: ADME.
For another data set, the target named is Cytochrome P450 2C19 (Homo sapiens, UniProt P33261). Description: Inhibition of CYP2C19 (unknown origin) by luciferase reporter assay in presence of NADPH regeneration system.
The target in a further data set is T1, Cytochrome P450 1A2 (Homo sapiens, UniProt P05177).
T1 sequence (P05177 whole entry): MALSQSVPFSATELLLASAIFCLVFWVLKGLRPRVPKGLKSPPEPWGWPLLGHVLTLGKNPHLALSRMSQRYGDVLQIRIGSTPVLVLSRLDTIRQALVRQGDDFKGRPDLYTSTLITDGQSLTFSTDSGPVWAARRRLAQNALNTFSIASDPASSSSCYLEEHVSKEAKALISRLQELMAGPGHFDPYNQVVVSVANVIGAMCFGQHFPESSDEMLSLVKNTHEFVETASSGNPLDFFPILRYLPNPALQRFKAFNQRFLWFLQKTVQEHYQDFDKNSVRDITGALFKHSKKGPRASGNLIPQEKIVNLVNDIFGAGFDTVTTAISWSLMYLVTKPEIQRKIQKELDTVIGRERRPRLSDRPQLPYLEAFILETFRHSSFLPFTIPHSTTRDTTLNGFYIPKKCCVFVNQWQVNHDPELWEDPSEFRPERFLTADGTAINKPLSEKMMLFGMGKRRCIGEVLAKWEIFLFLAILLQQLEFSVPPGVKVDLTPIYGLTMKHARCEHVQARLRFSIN
The experiment in a line: Inhibition of CYP1A2 (unknown origin) by luciferase reporter assay in presence of NADPH regeneration system. Format: ADME.

A short description of data set [3]: Half life in rat liver microsomes. The data set is classed as ADME.
Data set [4] in a line: Half life in human liver microsomes. The data set is classed as ADME.
The target in data set [5] is T2, Neuromedin-K receptor (Homo sapiens, UniProt P29371).
T2 sequence (P29371 whole entry): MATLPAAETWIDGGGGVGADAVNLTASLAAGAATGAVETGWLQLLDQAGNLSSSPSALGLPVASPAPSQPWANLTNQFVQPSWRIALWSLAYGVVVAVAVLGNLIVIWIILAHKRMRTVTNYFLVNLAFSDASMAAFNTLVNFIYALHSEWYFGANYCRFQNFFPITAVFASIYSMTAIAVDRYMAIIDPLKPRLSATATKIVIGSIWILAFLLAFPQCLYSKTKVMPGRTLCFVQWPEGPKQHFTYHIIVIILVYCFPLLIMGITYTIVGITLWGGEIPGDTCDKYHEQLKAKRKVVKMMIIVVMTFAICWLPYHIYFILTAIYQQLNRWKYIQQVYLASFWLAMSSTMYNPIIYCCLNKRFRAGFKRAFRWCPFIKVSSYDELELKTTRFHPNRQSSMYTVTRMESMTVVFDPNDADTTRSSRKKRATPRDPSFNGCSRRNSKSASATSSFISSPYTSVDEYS

Data set [6] in a line: in vivo. As to conditions: Sprague-Dawley, rat, po, 3 mg/kg.
Data set [7] addresses T2, Neuromedin-K receptor. The experiment in a line: biochemical.
Description: Displacement of [3H]-SB222200 from recombinant human NK3R expressed in CHO cell membranes after 90 mins by scintillation counting analysis
For a further data set, the target named is T3, Substance-K receptor (Homo sapiens, UniProt P21452).
T3 sequence (P21452 whole entry): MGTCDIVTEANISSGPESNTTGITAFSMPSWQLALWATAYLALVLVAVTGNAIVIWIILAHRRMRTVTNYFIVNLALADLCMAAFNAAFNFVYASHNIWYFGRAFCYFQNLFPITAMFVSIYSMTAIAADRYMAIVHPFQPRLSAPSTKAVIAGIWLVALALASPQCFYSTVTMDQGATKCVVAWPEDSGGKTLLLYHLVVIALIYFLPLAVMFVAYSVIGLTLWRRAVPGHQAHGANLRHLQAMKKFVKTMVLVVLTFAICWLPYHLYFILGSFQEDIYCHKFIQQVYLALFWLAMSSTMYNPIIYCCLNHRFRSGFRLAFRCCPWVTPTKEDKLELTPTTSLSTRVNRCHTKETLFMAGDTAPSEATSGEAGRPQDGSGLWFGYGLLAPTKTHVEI
Description: Displacement of [125I]NKA from human NK2R expressed in CHO cell membranes after 90 mins by scintillation counting analysis.

The target of data set [8] is Kappa-type opioid receptor (Homo sapiens) (UniProt P41145). Description: Inhibition of KOR (unknown origin) at 10 uM relative to control.
Data set [9] has the same target. The experiment in a line: Inhibition of KOR (unknown origin) at 1 uM relative to control.
Data set [10] addresses Mu-type opioid receptor (Homo sapiens) (UniProt P35372). Description: Inhibition of recombinant human mu opioid receptor expressed in HEK293 cells at 1 uM by radioligand displacement assay relative to control. Format: cell-based.
In data set [11] the target is Muscarinic acetylcholine receptor M3 (Homo sapiens) (UniProt P20309). The experiment in a line: Displacement of [3H]4-DAMP from recombinant human muscarinic M3 receptor expressed in CHO cells at 1 uM after 60 mins by scintillation counting analysis relative to control. Format: cell-based.
Data set [12] addresses Muscarinic acetylcholine receptor M4 (Homo sapiens) (UniProt P08173). The experiment in a line: Displacement of [3H]4-DAMP from recombinant human muscarinic M4 receptor expressed in CHO cells at 1 uM after 60 mins by scintillation counting analysis relative to control. The data set is classed as cell-based.
Data set [13] concerns the target Muscarinic acetylcholine receptor M5 (Homo sapiens) (UniProt P08912). The experiment in a line: Displacement of [3H]4-DAMP from recombinant human muscarinic M5 receptor expressed in CHO cells at 1 uM after 60 mins by scintillation counting analysis relative to control. Format: cell-based.
The target of data set [14] is D(3) dopamine receptor (Homo sapiens) (UniProt P35462). The experiment in a line: Displacement of [3H]methyl-spiperone from recombinant human dopamine D3 receptor expressed in CHO cells at 1 uM by scintillation counting analysis relative to control. The data set is classed as cell-based.
In data set [15] the target is Delta-type opioid receptor (Rattus norvegicus) (UniProt P33533). The experiment in a line: Displacement of [3H]naloxone from delta opioid receptor in rat cerebral cortex at 1 uM after 40 mins by scintillation counting analysis relative to control. Format: tissue-based.
Data set [16] addresses 5-hydroxytryptamine receptor 1A (Homo sapiens) (UniProt P08908). Description: Inhibition of recombinant human 5HT1A receptor expressed in HEK293 cells at 1 uM by radioligand displacement assay relative to control. Format: cell-based.
For data set [17], the target named is 5-hydroxytryptamine receptor 2A (Homo sapiens) (UniProt P28223). The experiment in a line: Displacement of [3H]ketanserin from recombinant human 5HT2A receptor expressed in HEK293 cells at 1 uM after 60 mins by scintillation counting analysis relative to control. The data set is classed as cell-based.
The target of data set [18] is 5-hydroxytryptamine receptor 2B (Homo sapiens) (UniProt P41595). The experiment in a line: Displacement of [3H]mesulergine from recombinant human 5HT2B receptor expressed in CHO cells at 1 uM after 60 mins by scintillation counting analysis relative to control. Format: cell-based.
The target of data set [19] is 5-hydroxytryptamine receptor 7 (Homo sapiens) (UniProt P34969). The experiment in a line: Inhibition of recombinant human 5HT7 receptor expressed in CHO cells at 1 uM by radioligand displacement assay relative to control. Format: cell-based.
Data set [20] has as its target Histamine H2 receptor (Homo sapiens) (UniProt P25021). Description: Displacement of [125I]APT from recombinant human histamine H2 receptor expressed in CHO cells at 1 uM after 120 mins by scintillation counting analysis relative to control. Format: cell-based.
The target of data set [21] is Sodium-dependent noradrenaline transporter (Homo sapiens) (UniProt P23975). The experiment in a line: Displacement of [3H]nisoxetine from recombinant human norepinephrine transporter expressed in CHO cells at 1 uM after 120 mins by scintillation counting analysis relative to control. Format: cell-based.
Data set [22] addresses Sodium-dependent dopamine transporter (Homo sapiens) (UniProt Q01959). Description: Displacement of [3H]BTCP from recombinant human dopamine transporter expressed in CHO cells at 1 uM after 120 mins by scintillation counting analysis relative to control. Format: cell-based.
Data set [23] in a line: Fraction unbound in rat plasma at 5 uM after 4 hrs by equilibrium dialysis method. Format: ADME, cell-free.
Data set [24] concerns Rattus norvegicus. Description: Unbound AUC in Sprague-Dawley rat at 1 mg/kg, iv by LC-MS/MS analysis. The data set is classed as ADME, organism-based. More on the design: dose 1 mg/kg, route intravenous. To be noted: in vivo.
Data set [25] has as its system Rattus norvegicus. Description: Unbound AUC in Sprague-Dawley rat at 3 mg/kg, po by LC-MS/MS analysis. Format: ADME, organism-based. More on the design: dose 3 mg/kg, route oral. To be noted: in vivo.
In data set [26] the test system is Rattus norvegicus. The experiment in a line: Unbound Cmax in Sprague-Dawley rat at 3 mg/kg, po by LC-MS/MS analysis. Format: ADME, organism-based. Details: dose 3 mg/kg, route oral. To be noted: in vivo.
A short description of data set [27]: Fraction unbound in rat brain at 5 uM after 4 hrs by equilibrium dialysis method. Format: ADME, tissue-based.
The target of data set [28] is Kappa-type opioid receptor (Rattus norvegicus) (UniProt P34975). The experiment in a line: Inhibition of rat recombinant KOR expressed in CHO cells at 1 uM by radioligand displacement assay relative to control. The data set is classed as cell-based.
Data set [29] in a line: in vivo. To be noted: Sprague-Dawley, rat, iv, 1 mg/kg.
A short description of data set [30]: in vivo. As to conditions: Sprague-Dawley, rat, po, 3 mg/kg. This is another data set of the same source.

Chain of Kappa-type opioid receptor (Homo sapiens) (P41145 whole entry): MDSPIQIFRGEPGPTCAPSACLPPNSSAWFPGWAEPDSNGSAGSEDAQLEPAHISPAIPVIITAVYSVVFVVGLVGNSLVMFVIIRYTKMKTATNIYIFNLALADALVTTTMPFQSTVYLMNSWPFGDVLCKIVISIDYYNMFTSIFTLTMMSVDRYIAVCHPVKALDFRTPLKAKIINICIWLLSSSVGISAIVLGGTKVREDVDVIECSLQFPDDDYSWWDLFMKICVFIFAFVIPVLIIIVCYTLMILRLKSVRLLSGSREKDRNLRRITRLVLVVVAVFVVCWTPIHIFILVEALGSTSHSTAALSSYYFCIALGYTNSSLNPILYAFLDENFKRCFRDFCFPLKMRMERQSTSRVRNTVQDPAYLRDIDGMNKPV
Chain of Muscarinic acetylcholine receptor M4 (Homo sapiens) (P08173 whole entry): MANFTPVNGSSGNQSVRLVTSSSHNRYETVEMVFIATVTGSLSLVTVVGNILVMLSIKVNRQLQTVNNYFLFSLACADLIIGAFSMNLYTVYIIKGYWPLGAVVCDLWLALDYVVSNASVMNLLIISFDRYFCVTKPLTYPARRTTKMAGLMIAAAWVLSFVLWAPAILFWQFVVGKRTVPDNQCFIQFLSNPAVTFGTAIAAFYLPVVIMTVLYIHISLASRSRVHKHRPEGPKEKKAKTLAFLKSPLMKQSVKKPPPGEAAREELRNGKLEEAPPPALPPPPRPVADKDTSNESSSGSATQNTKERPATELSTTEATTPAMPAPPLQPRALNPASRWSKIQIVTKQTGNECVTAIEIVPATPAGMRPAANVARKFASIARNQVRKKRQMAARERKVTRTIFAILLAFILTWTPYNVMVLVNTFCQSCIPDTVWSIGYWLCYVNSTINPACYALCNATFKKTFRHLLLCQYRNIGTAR
Chain of 5-hydroxytryptamine receptor 2B (Homo sapiens) (P41595 whole entry): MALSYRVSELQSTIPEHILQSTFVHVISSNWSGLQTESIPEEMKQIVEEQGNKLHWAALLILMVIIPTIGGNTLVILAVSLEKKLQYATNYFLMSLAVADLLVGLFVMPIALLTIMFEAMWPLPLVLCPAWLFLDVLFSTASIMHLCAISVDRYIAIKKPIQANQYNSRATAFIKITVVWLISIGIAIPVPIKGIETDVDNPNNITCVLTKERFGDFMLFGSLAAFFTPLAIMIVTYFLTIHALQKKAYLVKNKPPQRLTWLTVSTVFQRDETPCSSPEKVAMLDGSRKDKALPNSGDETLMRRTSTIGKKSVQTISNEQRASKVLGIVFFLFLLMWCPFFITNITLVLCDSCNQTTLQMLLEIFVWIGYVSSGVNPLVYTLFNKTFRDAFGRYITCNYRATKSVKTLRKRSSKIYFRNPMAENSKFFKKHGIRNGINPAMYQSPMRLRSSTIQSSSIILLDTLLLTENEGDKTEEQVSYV
Chain of 5-hydroxytryptamine receptor 1A (Homo sapiens) (P08908 whole entry): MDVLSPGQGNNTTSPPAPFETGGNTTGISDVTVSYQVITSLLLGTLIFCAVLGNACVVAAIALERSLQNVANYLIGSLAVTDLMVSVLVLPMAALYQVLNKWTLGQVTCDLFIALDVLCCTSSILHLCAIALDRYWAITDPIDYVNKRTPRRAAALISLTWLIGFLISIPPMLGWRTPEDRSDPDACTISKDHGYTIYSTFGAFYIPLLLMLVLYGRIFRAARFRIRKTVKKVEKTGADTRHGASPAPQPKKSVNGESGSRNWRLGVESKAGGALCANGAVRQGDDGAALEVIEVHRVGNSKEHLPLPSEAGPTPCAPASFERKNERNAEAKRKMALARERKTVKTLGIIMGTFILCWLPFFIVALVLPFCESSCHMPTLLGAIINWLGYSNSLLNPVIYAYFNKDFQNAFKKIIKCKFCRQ
Chain of Muscarinic acetylcholine receptor M3 (Homo sapiens) (P20309 whole entry, looked up): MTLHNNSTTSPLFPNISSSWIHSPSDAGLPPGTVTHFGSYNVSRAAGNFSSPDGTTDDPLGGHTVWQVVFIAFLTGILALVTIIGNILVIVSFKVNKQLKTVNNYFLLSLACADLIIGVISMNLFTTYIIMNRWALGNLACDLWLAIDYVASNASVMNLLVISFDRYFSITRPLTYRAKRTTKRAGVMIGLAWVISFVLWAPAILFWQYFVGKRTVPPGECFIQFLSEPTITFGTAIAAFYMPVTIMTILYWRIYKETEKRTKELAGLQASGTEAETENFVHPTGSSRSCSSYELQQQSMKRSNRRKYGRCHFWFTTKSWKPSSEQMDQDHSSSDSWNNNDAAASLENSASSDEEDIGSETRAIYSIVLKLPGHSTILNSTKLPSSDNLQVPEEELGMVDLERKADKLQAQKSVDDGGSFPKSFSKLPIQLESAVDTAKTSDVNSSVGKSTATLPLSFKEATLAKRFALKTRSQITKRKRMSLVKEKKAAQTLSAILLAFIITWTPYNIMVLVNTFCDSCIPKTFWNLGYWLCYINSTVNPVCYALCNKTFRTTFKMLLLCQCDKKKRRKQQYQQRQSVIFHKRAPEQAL
Chain of Muscarinic acetylcholine receptor M5 (Homo sapiens) (P08912 whole entry): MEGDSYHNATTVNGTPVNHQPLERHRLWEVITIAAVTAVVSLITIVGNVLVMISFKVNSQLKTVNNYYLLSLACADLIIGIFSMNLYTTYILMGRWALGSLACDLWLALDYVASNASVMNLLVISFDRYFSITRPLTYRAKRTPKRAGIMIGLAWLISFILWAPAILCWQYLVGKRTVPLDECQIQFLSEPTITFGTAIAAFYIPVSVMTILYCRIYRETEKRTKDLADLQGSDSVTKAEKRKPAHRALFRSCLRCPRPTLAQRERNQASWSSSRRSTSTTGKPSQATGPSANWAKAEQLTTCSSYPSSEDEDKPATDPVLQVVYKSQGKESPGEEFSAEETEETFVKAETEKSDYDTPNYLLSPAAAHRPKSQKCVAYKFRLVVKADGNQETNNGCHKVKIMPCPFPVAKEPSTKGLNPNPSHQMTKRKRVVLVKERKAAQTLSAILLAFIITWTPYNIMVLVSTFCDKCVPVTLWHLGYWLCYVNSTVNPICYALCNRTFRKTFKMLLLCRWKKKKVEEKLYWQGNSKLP
Chain of Mu-type opioid receptor (Homo sapiens) (P35372 whole entry): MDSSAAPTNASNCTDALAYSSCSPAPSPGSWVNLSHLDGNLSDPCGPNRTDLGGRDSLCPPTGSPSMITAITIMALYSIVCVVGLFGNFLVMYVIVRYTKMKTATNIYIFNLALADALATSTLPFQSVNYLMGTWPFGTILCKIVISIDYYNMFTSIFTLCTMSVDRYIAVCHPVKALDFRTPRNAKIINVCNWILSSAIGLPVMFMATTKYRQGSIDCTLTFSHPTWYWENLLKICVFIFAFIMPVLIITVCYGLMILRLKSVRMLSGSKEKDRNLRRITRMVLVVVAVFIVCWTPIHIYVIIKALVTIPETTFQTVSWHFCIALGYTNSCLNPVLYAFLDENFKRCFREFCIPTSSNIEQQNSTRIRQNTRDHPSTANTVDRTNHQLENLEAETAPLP
Chain of Sodium-dependent noradrenaline transporter (Homo sapiens) (P23975 whole entry): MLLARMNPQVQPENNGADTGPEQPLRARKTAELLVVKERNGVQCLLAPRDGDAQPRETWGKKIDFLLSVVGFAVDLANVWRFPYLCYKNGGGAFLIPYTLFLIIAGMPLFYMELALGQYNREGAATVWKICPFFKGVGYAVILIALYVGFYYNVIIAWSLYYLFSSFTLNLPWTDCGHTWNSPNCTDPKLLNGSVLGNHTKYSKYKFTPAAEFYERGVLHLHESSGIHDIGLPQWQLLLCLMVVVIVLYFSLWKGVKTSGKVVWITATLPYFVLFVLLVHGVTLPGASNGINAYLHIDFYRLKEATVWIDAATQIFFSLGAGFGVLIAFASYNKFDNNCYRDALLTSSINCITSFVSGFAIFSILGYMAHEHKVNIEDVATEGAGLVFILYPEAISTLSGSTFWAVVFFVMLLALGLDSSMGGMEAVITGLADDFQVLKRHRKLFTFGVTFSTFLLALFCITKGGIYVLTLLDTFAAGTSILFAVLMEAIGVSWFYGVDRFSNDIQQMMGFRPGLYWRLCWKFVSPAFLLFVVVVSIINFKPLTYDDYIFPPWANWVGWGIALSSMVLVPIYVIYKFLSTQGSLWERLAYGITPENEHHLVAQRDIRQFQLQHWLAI
Chain of Cytochrome P450 2D6 (P10635 whole entry): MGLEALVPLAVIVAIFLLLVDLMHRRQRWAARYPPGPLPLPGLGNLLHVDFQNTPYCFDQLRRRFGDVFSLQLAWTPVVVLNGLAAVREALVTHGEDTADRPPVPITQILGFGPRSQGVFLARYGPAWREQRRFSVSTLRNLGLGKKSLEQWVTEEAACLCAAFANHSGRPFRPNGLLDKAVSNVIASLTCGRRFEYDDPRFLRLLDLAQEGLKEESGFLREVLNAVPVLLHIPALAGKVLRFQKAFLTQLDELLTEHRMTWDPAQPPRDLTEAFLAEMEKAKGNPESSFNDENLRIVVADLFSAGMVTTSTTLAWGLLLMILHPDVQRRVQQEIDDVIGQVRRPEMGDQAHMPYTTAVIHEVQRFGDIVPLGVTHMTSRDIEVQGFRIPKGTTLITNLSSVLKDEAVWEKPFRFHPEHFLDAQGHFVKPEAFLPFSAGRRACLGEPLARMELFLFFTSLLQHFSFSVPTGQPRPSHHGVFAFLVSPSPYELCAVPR
Chain of Kappa-type opioid receptor (Rattus norvegicus) (P34975 whole entry): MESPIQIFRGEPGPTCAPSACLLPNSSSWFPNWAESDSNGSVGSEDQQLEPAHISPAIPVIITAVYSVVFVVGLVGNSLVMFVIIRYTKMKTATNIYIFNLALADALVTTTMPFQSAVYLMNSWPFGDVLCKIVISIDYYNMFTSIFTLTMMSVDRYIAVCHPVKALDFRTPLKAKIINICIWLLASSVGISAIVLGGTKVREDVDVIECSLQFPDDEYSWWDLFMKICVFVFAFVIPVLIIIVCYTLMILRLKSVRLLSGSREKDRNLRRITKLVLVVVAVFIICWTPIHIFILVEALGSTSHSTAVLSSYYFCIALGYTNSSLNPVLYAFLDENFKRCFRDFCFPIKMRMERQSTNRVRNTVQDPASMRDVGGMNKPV

`O=C(c1ccc(F)cc1)N1CCn2c(nnc2-c2ccccn2)C1`: the logD in data set [1] turned out to be 1.1. This compound showed a solubility (thermodynamic) in [2] of at least 200 µM. The half-maximal inhibitory concentration (IC50) on Cytochrome P450 3A4 is over 100 µM; at Cytochrome P450 2D6, 15 µM; at Cytochrome P450 2C9, 66 µM; at Cytochrome P450 2C19 it was 14 µM; at Cytochrome P450 1A2 it was 27 µM; against Neuromedin-K receptor [5], 4 µM. Further, the half-life in data set [3] and in [4] was over 4 h throughout. Also, the bioavailability in the data set “in vivo [6]” is 108%. Moreover, at Neuromedin-K receptor [7], the Ki came to 4.5 µM.

Regarding `CSCC[C@H](NC(=O)[C@H](CC(C)C)NC(=O)CNC(=O)[C@@H](NC(=O)[C@H](Cc1ccccc1)NC(=O)[C@H](Cc1ccccc1)NC(=O)[C@H](CC(=O)O)NC(=O)[C@H](Cc1c[nH]cn1)NC(=O)[C@H](CCSC)NC(=O)[C@@H](N)CC(=O)O)C(C)C)C(N)=O` [NEUROKININ B], the Ki at Substance-K receptor is 0.0158 µM.

For the compound `CC(=O)N(C)C1(c2ccccc2)CCN(CCC[C@]2(c3ccc(Cl)c(Cl)c3)CCCN(C(=O)c3ccccc3)C2)CC1` [OSANETANT], the logD in data set [1] amounted to 3.4. In addition, the inhibition in data set [8] is 100%; in data set [9], 75%; in data set [10], over 50%; in data set [11] it was over 50%; in [12], over 50%; in data set [13], over 50%. Moreover, the inhibition in data set [14], in data set [15], in data set [16], in data set [17], in data set [18] and in data set [19] was over 50% throughout. Moreover, the inhibition in data set [20], in [21], in data set [22] and in [28] was over 50% throughout. The fraction unbound at 4 h, 5 µM was found to be 0.006 in data set [23] and 0.001 in data set [27]. The fAUC was 0.2 µM·min in the data set with Rattus norvegicus [24] and 0.1 µM·min with Rattus norvegicus [25]. In the data set on Rattus norvegicus [26], this compound had a fCmax of 0.42 nM. In the data set “in vivo [29]”, this compound showed a half-life of 2.02 h. Also, the Tmax in “in vivo [30]” was 0.75 h.
